This note sets out measurements from article doi:10.1101/2022.02.04.479134, “A Suite of TMPRSS2 Assays for Screening Drug Repurposing Candidates as Potential Treatments of COVID-19” (bioRxiv, 2022).

For assay [1], the system named is SARS-CoV-2 spike pseudotyped particles (Delta variant B.1.617.2) entry into Calu-3 cells. Briefly: microbe, parasite or virus in culture. It counts as cell-based. The settings on record: for AC50: 48 h, N/D = Not Detected, read-out: SARS-CoV-2 PP (Delta) AC50; for SARS-CoV-2 PP (Delta) Max Response: PP wells 0%, bald PP −100%; for inhibition of pseudotyped particle entry: variant not stated; for Emax: Severe acute respiratory syndrome coronavirus 2, Calu-3, read-out: SARS-CoV-2 PP (Delta) Max Response.

Assay [2] relates to SARS-CoV-2 spike pseudotyped particles (WA1 + D614G) entry into Calu-3 cells. It counts as cell-based. Particulars: for AC50: read-out: SARS-CoV-2 PP (WA1 + D614G) AC50.
The mark [3] stands for this setting: Severe acute respiratory syndrome coronavirus 2, Calu-3 cells.
Setting [4] is: Severe acute respiratory syndrome coronavirus 2, Calu-3, variant not given, matches Delta values, read-out: IC50 blocking of entry into Calu-3 cells using pseudotyped particles with SARS-CoV-2 spike protein.
[5] abbreviates: Calu-3 cells, read-out: IC50 Delta pseudotyped particle entry.
[6] abbreviates: Severe acute respiratory syndrome coronavirus 2, Calu-3, read-out: IC50 Delta pseudotyped particle entry, Calu-3 cells.

Entries after “also recorded” stand apart in the source; their conditions may differ. Counter-ions that a name gives are not always drawn. Like-named read-outs stand apart in the source and are kept apart here. Some results are limits rather than exact numbers.

For G-007-LK, in assay [1] (Calu-3 cells), the AC50 was 1 µM and the “SARS-CoV-2 PP (Delta) Max Response” value is on record as -67%. Besides, in assay [2], the “SARS-CoV-2 PP (WA1 + D614G) Max Response” value was -73% and the AC50 was 0.5 µM.
As for `O=c1ccc2ccc(O)cc2o1` [7-Hydroxycoumarin], the “inhibition of pseudotyped particle entry” value in assay [1] (Calu-3 cells) is listed as “lack of activity; also recorded: nor any inhibition of pseudotyped particle entry”.
`NC[C@H]1CC[C@H](C(=O)Oc2ccc(CCC(=O)O)cc2)CC1` [Cetraxate HCl]: the Emax in assay [1] was found to be 30%. Besides, the AC50 in assay [1] (setting [3]) was 23.3 µM.
In the case of `CC(C)C[C@H](NC(=O)[C@H](Cc1ccccc1)NC(=O)c1cnccn1)B(O)O` [Bortezomib], the IC50 in assay [1] (Severe acute respiratory syndrome coronavirus 2, Calu-3, Calu-3 cells, apparent, due to cytotoxicity, read-out: IC50 inhibition of viral entry (variant not stated)) was < 0.05 µM. The Emax in assay [1] is -100%. The AC50 in assay [1] (setting [3]) is < 0.05 µM. For the same molecule, in assay [2], the “SARS-CoV-2 PP (WA1 + D614G) Max Response” value is on record as -100% and the AC50 is < 0.05 µM.
`N=C(N)c1cccc(CC(NS(=O)(=O)c2cccc(-c3ccc(Cl)cc3Cl)c2)C(=O)N2CCC(NC(=O)NC3CCCCC3)CC2)c1` (centres unmarked) [Cmpd 114 (Meyer)]: the Emax in assay [1] was determined as 99%. Moreover, the IC50 in assay [1] (setting [4]) stood at 15 µM. Also, the AC50 in assay [1] (setting [3]) came to 15.3 µM. Also, in assay [2], the “SARS-CoV-2 PP (WA1 + D614G) Max Response” value is -88% and the AC50 is 5.35 µM.
With `N=C(N)c1ccc2nc(-c3cc(CC(=O)N[C@@H](CC(=O)O)C(=O)O)cc(-c4cc(S(N)(=O)=O)ccc4O)c3O)[nH]c2c1` [PCI-27483], the Emax in assay [1] is -66%. Besides, the AC50 in assay [1] (setting [3]) is 15.8 µM; in assay [2], 16.5 µM. The “SARS-CoV-2 PP (WA1 + D614G) Max Response” value in assay [2] is -66%.
`CCOC(=O)c1ccc(OC(=O)CCCCCNC(=N)N)cc1` [Gabexate mesilate]: in assay [1] (Calu-3 cells), the “inhibition of pseudotyped particle entry” value was “inactive”.
Take `COC(=O)N[C@H](C(=O)N1CCC[C@H]1c1nc(-c2ccc(-c3ccc(-c4c[nH]c([C@@H]5CCCN5C(=O)[C@@H](NC(=O)OC)C(C)C)n4)cc3)cc2)c[nH]1)C(C)C` [Daclatasvir dihydrochloride]: the Emax in assay [1] was -100%. Moreover, in assay [1] (setting [3]), the AC50 worked out at 32.9 µM. Besides, in assay [2], the “SARS-CoV-2 PP (WA1 + D614G) Max Response” value is given as -100% and the AC50 is 39 µM.
In the case of `CN(C)C(=O)COC(=O)Cc1ccc(OC(=O)c2ccc(NC(=N)N)cc2)cc1` [Camostat], the IC50 came to 0.059 µM in assay [1] (setting [5]), 0.0588 µM in assay [1] (setting [6]) and 0.05 µM in assay [2] (read-out: IC50 WA1 + D614G pseudotyped particle entry). Further, the Emax in assay [1] was -92%. Also, the AC50 in assay [1] (setting [3]) was 0.059 µM; in assay [2] it was 0.05 µM. Further, in assay [2], the “SARS-CoV-2 PP (WA1 + D614G) Max Response” value was -95%.
Turning to Marizomib / Salinosporamide A, in assay [1] (Calu-3 cells), the AC50 is < 0.05 µM and the “SARS-CoV-2 PP (Delta) Max Response” value is -100%. Also, in assay [2], the “SARS-CoV-2 PP (WA1 + D614G) Max Response” value is recorded as -100% and the AC50 is < 0.05 µM.
Regarding Dibromopropamidine Dihydrochloride, in assay [1] (Calu-3 cells), the AC50 stood at 19.2 µM and the “SARS-CoV-2 PP (Delta) Max Response” value was -49%. In assay [2], the “SARS-CoV-2 PP (WA1 + D614G) Max Response” value is -44% and the AC50 was 19.5 µM.
AGN194310: in assay [1] (Calu-3 cells), the AC50 turned out to be 38.4 µM and the “SARS-CoV-2 PP (Delta) Max Response” value is on record as -86%. Moreover, in assay [2], the “SARS-CoV-2 PP (WA1 + D614G) Max Response” value was -87% and the AC50 turned out to be 22 µM.
Regarding `N=C(N)c1cccc(CC(NS(=O)(=O)c2cccc(-c3ccc(Cl)cc3Cl)c2)C(=O)N2CCC(CCN)CC2)c1` (centres unmarked) [Cmpd 92 (Meyer)], the Emax in assay [1] was 92%. Moreover, in assay [1] (setting [4]), the IC50 was found to be 4 µM. Moreover, the AC50 in assay [1] (setting [3]) stood at 3.98 µM; in assay [2], 2.05 µM. In addition, the “SARS-CoV-2 PP (WA1 + D614G) Max Response” value in assay [2] is on record as -70%.
Take `COC(=O)[C@H](Cc1cccc(C(=N)N)c1)[C@@H](C)NC(=O)c1ccc(-c2cc[n+]([O-])cc2)cc1` [Otamixaban]: in assay [1], the Emax worked out at 54%. Besides, in assay [1] (setting [3]), the AC50 is 18 µM. In assay [2], the “SARS-CoV-2 PP (WA1 + D614G) Max Response” value is -50% and the AC50 was 20 µM.
In the case of `N=C(N)c1ccc2cc(OC(=O)c3ccc(N=C(N)N)cc3)ccc2c1` [Nafamostat mesilate], the IC50 in assay [1] (setting [5]) worked out at 0.0014 µM; in assay [1] (setting [6]), 0.00142 µM. In addition, in assay [1], the Emax was -100%. Besides, the AC50 in assay [1] (setting [3]) came to 0.0014 µM. Further, the “SARS-CoV-2 PP (WA1 + D614G) Max Response” value in assay [2] was -100%.
